Laboratory results taken from article PMC7156724, “Potent BRD4 inhibitor suppresses cancer cell-macrophage interaction” (Nature Communications, 2020).
Several values for one entry are separate records, joined by “and”; a condition that tells them apart may be missing. Equal values may be shown once.

Legend:
[1] = tested on: human melanoma patient-derived xenograft (PDX); assay: Human melanoma patient-derived xenograft (PDX) tumor growth; assay type: in vivo, NSG mice; settings: Fig.3f, 1.5mg/kg, individual animals, in mm³ (unit assumed)
From the text: PO, oral administration; QD, once daily; BID, twice daily. b–d Tumor growth curves for A2780 ovarian tumor (n = 5) (b), TMD8 large B cell lymphoma (n = 6) (c), and B16F10 melanoma (n = 5) (d) bearing mice treated with the indicated compounds once daily for 11-21 days. e, f Tumor growth curves for A375 melanoma (n = 6) (e), and patient-derived xenograft (PDX) of melanoma (n = 5) (f) bearing mice treated with the indicated compounds once daily (5 days on, 2 days off) for 21 days. For d–f, NHWD-870 used is NHWD-870-HCl synthesized using Suzuki coupling route. Data are presented as mean ± SEM in (a, b, d, f) and mean + SEM in (c, e). p values were calculated using two-tailed, unpaired t tests. *p < 0.05; **p < 0.01; ***p < 0.001. Source data are provided as a Source Data file.
4–6 weeks old female BALB/c nude mice were used for most experiments, with the exception of 6–8 weeks old female C57BL/6 mice were used for B16F10 experiments, and 6–8 weeks old male BALB/c nude mice and SD rats were used for pharmacokinetic experiments. All animals were purchased from Shanghai SIPPR-Bk Lab Animal Co., Ltd. All animals were housed under a regimen of 12 h light/12 h dark cycles and specific pathogen-free conditions. 5×10^6 NCI-H526, ES-2, MDA-MB231, A2780, A375, B16F10, and TMD-8 cells (0.1 ml) were injected subcutaneously into female nude mice. The melanoma patient-derived xenograft model was derived from a human melanoma sample (BRAF, NARS and NF1 wild type, and p53 mutant) removed from a patient in Xiangya Hospital. Surgically removed tumor fragments were implanted subcutaneously into female NSG mice. When the tumors grew to ~1000 mm^3, they were harvested and cryopreserved or immediately re-implanted for expansion or experiments. Mouse body weight and tumor sizes were measured every 3 days. Once the tumors grew to 150–200 mm^3, mice were treated with the compounds as described in the Figures. 1 × 10^6 A2780 cells (1 ml) were injected into the abdominal cavity of nude mice. Ascitic volume and tumor weight were measured by an electronic balance. All the procedures were evaluated and approved by the Institutional Animal Care and Use Committee of Central South University and Yale University.

TAMs = assay: Transwell co-culture of pretreated A2780 cells and TAMs with CSF1 or anti-CSF1R antibodies; assay type: cell-based, mouse; settings: co-culture with pretreated A2780 cells, MCSF-1 10ng/ml where added
Experimental: Fig. 6 CSF1/CSF1R signaling is critical for the tumor inhibitory effects of NHWD-870 and CSF1 induced ovarian cancer growth depends on macrophages. a Number of TAMs after treatment with the indicated concentration of CSF1 for 48 h. Data are presented as mean ± SEM from three independent experiments. b–d Schematics of the experiments (b). A2780 cells (pre-treated with DMSO or 100 nM NHWD-870 for 48 h) were seeded into the top chamber (transwell size: 0.4 μm), and TAMs (Mac, 40,000 cells per 24-well) in medium with PBS or 10 ng/ml CSF1 (c), or 50 ng/ml IgG or anti-CSF1R antibodies (d), were seeded into the bottom chamber. Shown are quantification of TAMs (c, d). Data are presented as mean ± SEM from three independent experiments. e Representative western blot analysis of A2780 cells stably transfected with CSF1 or empty vector (EV). Selected from three independent experiments. f Schematics of the animal experiments using an orthotopic mouse OC model, established by intraperitoneally injecting 1 × 10^6 (g–j) or 2 × 10^6 (k–m) human A2780 cells overexpressing CSF1 or control into female recipient nude mice. Mice were then treated with/without liposomal clodronate (LC) for 45 days (g–j) or treated with/without NHWD-870 (PO, QD, 3 mg/kg) for 37 days (k–m). g Increased mouse body weight was measured at the indicated time points (day 0-45 after LC treatment). h–j Net tumor weight (h), ascitic fluid volumes (i) tumor implantations in peritoneum, omentum and pevic cavity (j) were measured at day 45 from LC treatment. k–m Net tumor weight (k), ascitic fluid volumes (l) tumor implantations in peritoneum, omentum and pevic cavity (m) were measured at day 37 after NHWD-870 treatment. For g–m, data are presented as mean ± SEM from five different mice. p values were calculated using two-tailed, unpaired t tests in this figure. n.s, not significant; *p < 0.05; **p < 0.01; and ***p < 0.001. Source data are provided as a Source Data file.
CD45^+CD11b^+F4/80^+ TAMs were isolated from peritoneal metastasis of A2780 tumor-bearing mice and cultured in RPMI-1640 supplemented with 10% FBS, 1% penicillin/streptomycin, and 0–50 ng/ml CSF1 (R&D Systems) as indicated according to standard protocols. In the cancer cell-macrophage co-culture experiments, CSF1 was not added. In the transwell (Corning, pore size, 0.4 μm) co-culture experiments, tumor cells were placed into the upper chamber, and TAMs were seeded into the lower chamber.

Cc1nnn(C)c1-c1cnc2c3c4cnn(C)c4ccc3n([C@H](c3ccccc3)C3CCOCC3)c2c1.Cl [870-HCI]
Tumor volume ([1]; day 0): 0
Tumor volume ([1]; day 3): 76 and 83 and 79 and 110 and 130
Tumor volume ([1]; day 7): 143 and 132 and 174 and 201 and 230
Tumor volume ([1]; day 11): 195 and 185 and 250 and 289 and 310
Tumor volume ([1]; day 15): 264 and 276 and 364 and 396 and 423
Tumor volume ([1]; day 19): 349 and 303 and 474 and 530 and 503
Tumor volume ([1]; day 21): 425 and 403 and 503 and 684 and 603

B1: MCSF-1 (protein, UniProt P09603 33-554, looked up)
Macrophage colony-stimulating …: EEVSEYCSHMIGSGHLQSLQRLIDSQMETSCQITFEFVDQEQLKDPVCYLKKAFLLVQDIMEDTMRFRDNTPNAIAIVQLQELSLRLKSCFTKDYEEHDKACVRTFYETPLQLLEKVKNVFNETKNLLDKDWNIFSKNCNNSFAECSSQDVVTKPDCNCLYPKAIPSSDPASVSPHQPLAPSMAPVAGLTWEDSEGTEGSSLLPGEQPLHTVDPGSAKQRPPRSTCQSFEPPETPVVKDSTIGGSPQPRPSVGAFNPGMEDILDSAMGTNWVPEEASGEASEIPVPQGTELSPSRPGGGSMQTEPARPSNFLSASSPLPASAKGQQPADVTGTALPRVGPVRPTGQDWNHTPQKTDHPSALLRDPPEPGSPRISSLRPQGLSNPSTLSAQPQLSRSHSSGSVLPLGELEGRRSTRDRRSPAEPEGGPASEGAARPLPRFNSVPLTDTGHERQSEGSFSPQLQESVFHLLVPSVILVLLAVGGLLFYRWRRRSHQEPQRADSPLEQPEGSPLTQDDRQVELPV
Number of TAMs (Fig.6c) (TAMs; time 0): 5
Number of TAMs (Fig.6c) (TAMs; time 24): 6.1 and 7 and 6.4
Number of TAMs (Fig.6c) (TAMs; time 48): 18.4 and 16.8 and 17.9
Number of TAMs (Fig.6c) (TAMs; time 72): 34.1 and 29.5 and 32.5
